Measurements taken from patent US9901592B2 (priority 2008, dated 2018).
Converted amounts (≈) assume the structure as drawn. Like-named read-outs stand apart in the source and are kept apart here.

Key:
[1] = system: M. catarrhalis; experiment: microbe, parasite or virus in culture; type: cell-based; conditions: Moraxella catarrhalis
[2] = system: N. meningitidis; experiment: MIC, CLSI broth microdilution, invasive isolates; type: cell-based; conditions: Neisseria meningitidis; 62 N. meningitidis isolates
Method: Example. […] Colonization of the nasopharynx (NP) by NM can lead to invasive meningococcal disease. Chemoprophylaxis is used to eradicate NP colonization and prevent transmission to nonimmune contacts. […] 62 isolates (91.9% blood culture) of NM were collected from 29 medical centers in North and South America and Europe (1997-2008). […] Serological identification was performed for serogroups (SGs) B, C, Y and W135.

[3] = system: S. pneumoniae; experiment: mouse subcutaneous abscess model; type: in vivo; conditions: for average log10 CFU/gram of abscess: S. pneumoniae 1629, 10 mg/Kg PO
Method: Example. Efficacy was evaluated in several infection models. […] PD50s were determined 24 hr post infection. CEM-101 was further evaluated in a subcutaneous abscess mouse model against S. pneumoniae. CD-1 female mice were infected via SC injection of bacteria mixed with cyclodextran beads. Two hr post infection, mice received a single oral dose of CEM 101 or control agents. At 48 hr post dose, mice were euthanized, abscesses aseptically removed and bacteria enumerated. CFU per abscess was determined and compared to the untreated control. […] 24 hr post treatment, the thighs were processed and CFU/gram of thigh determined.
Example. Mouse Subcutaneous Abscess. Bacteria were prepared from an overnight plate culture by re-suspending in saline and adjusting the suspension to a 0.1 OD at 625 nm of a 1:10 dilution. The adjusted bacterial suspension was mixed 1:2 with cyclodextran beads prepared as per package instructions. The right flanks of the mice were shaven and injected subcutaneously with 0.2 ml of the bacterial inoculum. Two hours post infection mice were treated via oral gavage with either test article or control drug. 48 hours post infection, mice were euthanized, abscesses aseptically removed, homogenized, serially diluted and plated on bacterial growth agar. After overnight incubation, colonies were counted and CFUs/gram of abscess were determined.
Example. The ability of CEM101 to reduce the microbial load in abscess infection model was also assessed against S. pneumoniae isolates.

[4] = system: intraphagocytic L. pneumophila ATCC 33153 (THP-1); type: cell-based; conditions: intracellular L. pneumophila ATCC 33153
[5] = system: S. aureus; experiment: mouse systemic infection model (PD50); type: in vivo
[6] = system: S. pneumoniae; type: cell-based
[7] = system: S. pneumoniae; experiment: microbe, parasite or virus in culture; type: cell-based; conditions: for MIC: Streptococcus pneumoniae
[8] = system: pneumococci; experiment: microbe, parasite or virus in culture; type: cell-based, S. pneumoniae; conditions: Streptococcus pneumoniae
[9] = system: S. pyogenes; experiment: MIC of the strains of the mouse systemic infection model; type: cell-based; conditions: Streptococcus pyogenes

## CC[C@H]1OC(=O)[C@H](C)[C@@H](O[C@H]2C[C@@](C)(OC)[C@@H](O)[C@H](C)O2)[C@H](C)[C@@H](O[C@@H]2O[C@H](C)C[C@H](N(C)C)[C@H]2O)[C@](C)(OC)C[C@@H](C)C(=O)[C@H](C)[C@@H](O)[C@]1(C)O [CLR, clarithromycin]
[1]
  MIC90: 0.12 µg/mL (≈ 0.16 µM)
[2]
  MIC: 0.015 to 0.25 µg/mL (≈ 0.0201 to 0.334 µM)
  MIC50: 0.03 µg/mL (≈ 0.0401 µM)
  MIC90: 0.12 µg/mL (≈ 0.16 µM)
[3]; 24 hours
  average log10 CFU/gram of abscess: ~5.5 log10 CFU/gram
[3]; 48 hours
  average log10 CFU/gram of abscess: ~5.5 log10 CFU/gram
[3]; abscess, 10 mg/Kg QD dose
  log decrease of CFU from untreated mice: 1.5 log10
[4]
  Cs, static concentration: 0.12 mg/L
[5]; MRSA
  PD50: 5.0 mg/kg
[5]; MRSA 300 (CA)
  PD50: 19.5 mg/kg
[5]; S. aureus, single oral dose 1 hr post infection
  PD50: 22.7 mg/kg
[6]; S. pneumoniae, at 2×MIC
  Mutant selection frequencies: <1.0×10^−9-5.0×10^−7
[6]; strain 1077 Macrolide-S, 2 × MIC
  single step mutation frequency: 1.1 × 10^−9
[6]; strain 1077 Macrolide-S, 4 × MIC
  single step mutation frequency: <1.2 × 10^−10
[6]; strain 1077 Macrolide-S, 8 × MIC
  single step mutation frequency: <1.2 × 10^−10
[6]; strain 1635 Macrolide-R [erm(A)], 2 × MIC
  single step mutation frequency: <3.1 × 10^−9
[6]; strain 1635 Macrolide-R [erm(A)], 4 × MIC
  single step mutation frequency: <3.1 × 10^−9
[6]; strain 1635 Macrolide-R [erm(A)], 8 × MIC
  single step mutation frequency: <3.1 × 10^−9
[6]; strain 3665 Macrolide-R [mef(A)], 2 × MIC
  single step mutation frequency: 5.0 × 10^−7
[6]; strain 3665 Macrolide-R [mef(A)], 4 × MIC
  single step mutation frequency: <5.0 × 10^−10
[6]; strain 3665 Macrolide-R [mef(A)], 8 × MIC
  single step mutation frequency: <5.0 × 10^−10
[6]; strain 7127 Macrolide-S [S20N in L4, A105V in L22], 2 × MIC
  single step mutation frequency: <1.0 × 10^−9
[6]; strain 7127 Macrolide-S [S20N in L4, A105V in L22], 4 × MIC
  single step mutation frequency: <1.0 × 10^−9
[6]; strain 7127 Macrolide-S [S20N in L4, A105V in L22], 8 × MIC
  single step mutation frequency: <1.0 × 10^−9
[7]; S. pneumoniae
  strains with resistant clones / strains tested: 5/6
[7]; S. pneumoniae, 8 strains with varying resistotypes
  Parental MICs: 0.016 to 16 µg/mL
[7]; read-out: Initial MIC, strain 24 Macrolide-R [erm(B)], parent
  MIC: > 64 µg/mL
[7]; read-out: Initial MIC, strain 1076 Macrolide-R [erm(B)&mef(A)], parent
  MIC: > 64 µg/mL
[7]; read-out: Initial MIC, strain 1077 Macrolide-S, parent
  MIC: 0.016 µg/mL (≈ 0.0214 µM)
[7]; read-out: Initial MIC, strain 1635 Macrolide-R [erm(A)], parent
  MIC: 0.5 µg/mL (≈ 0.668 µM)
[7]; read-out: Initial MIC, strain 2686 Macrolide-R [L4 mutation], parent
  MIC: 8 µg/mL (≈ 10.7 µM)
[7]; read-out: Initial MIC, strain 3009 Macrolide-R [23SrRNA mutation], parent
  MIC: 16 µg/mL (≈ 21.4 µM)
[7]; read-out: Initial MIC, strain 3665 Macrolide-R [mef(A)], parent
  MIC: 2 µg/mL (≈ 2.67 µM)
[7]; read-out: Initial MIC, strain 7127 Macrolide-S [S20N in L4, A105V in L22], parent
  MIC: 0.03 µg/mL (≈ 0.0401 µM)
[7]; read-out: MIC of parents of resistant clones, S. pneumoniae (CEM-101: 7 strains)
  MIC: 0.03 to 16 µg/mL
[7]; read-out: Selected Resistance MIC, strain 1077 Macrolide-S, after serial passages in the drug
  MIC: 0.008 µg/mL (≈ 0.0107 µM)
[7]; read-out: Selected Resistance MIC, strain 1635 Macrolide-R [erm(A)], after serial passages in the drug
  MIC: > 64 µg/mL
[7]; read-out: Selected Resistance MIC, strain 2686 Macrolide-R [L4 mutation], after serial passages in the drug
  MIC: > 64 µg/mL
[7]; read-out: Selected Resistance MIC, strain 3009 Macrolide-R [23SrRNA mutation], after serial passages in the drug
  MIC: > 64 µg/mL
[7]; read-out: Selected Resistance MIC, strain 3665 Macrolide-R [mef(A)], after serial passages in the drug
  MIC: 16 µg/mL (≈ 21.4 µM)
[7]; read-out: Selected Resistance MIC, strain 7127 Macrolide-S [S20N in L4, A105V in L22], after serial passages in the drug
  MIC: 16 µg/mL (≈ 21.4 µM)
[7]; daily passages, min. 14, max. 50
  days until resistant clones (MIC increase): 14 to 49 days
[7]; strain 24 Macrolide-R [erm(B)], clone selected with CEM-101
  Retest MIC after 10 Antibiotic-free Subcultures: >64 µg/mL
[7]; strain 24 Macrolide-R [erm(B)], clone selected with TEL
  Retest MIC after 10 Antibiotic-free Subcultures: >64 µg/mL
[7]; strain 1076 Macrolide-R [erm(B)&mef(A)], clone selected with CEM-101
  Retest MIC after 10 Antibiotic-free Subcultures: >64 µg/mL
[7]; strain 1076 Macrolide-R [erm(B)&mef(A)], clone selected with TEL
  Retest MIC after 10 Antibiotic-free Subcultures: >64 µg/mL
[7]; strain 1077 Macrolide-S, clone selected with AZI
  Retest MIC after 10 Antibiotic-free Subcultures: >64 µg/mL
[7]; strain 1077 Macrolide-S, clone selected with CEM-101
  Retest MIC after 10 Antibiotic-free Subcultures: 0.06 µg/mL
[7]; strain 1077 Macrolide-S, clone selected with CLN
  Retest MIC after 10 Antibiotic-free Subcultures: >64 µg/mL
[7]; strain 1077 Macrolide-S, clone selected with TEL
  Retest MIC after 10 Antibiotic-free Subcultures: >64 µg/mL
[7]; strain 1635 Macrolide-R [erm(A)], clone selected with AZI
  Retest MIC after 10 Antibiotic-free Subcultures: >64 µg/mL
[7]; strain 1635 Macrolide-R [erm(A)], clone selected with CEM-101
  Retest MIC after 10 Antibiotic-free Subcultures: 1 µg/mL
[7]; strain 1635 Macrolide-R [erm(A)], clone selected with CLN
  Retest MIC after 10 Antibiotic-free Subcultures: 0.5 µg/mL
[7]; strain 1635 Macrolide-R [erm(A)], clone selected with CLR
  Retest MIC after 10 Antibiotic-free Subcultures: >64 µg/mL
[7]; strain 2686 Macrolide-R [L4 mutation], clone selected with CEM-101
  Retest MIC after 10 Antibiotic-free Subcultures: 32 µg/mL
[7]; strain 2686 Macrolide-R [L4 mutation], clone selected with CLR
  Retest MIC after 10 Antibiotic-free Subcultures: >64 µg/mL
[7]; strain 2686 Macrolide-R [L4 mutation], clone selected with TEL
  Retest MIC after 10 Antibiotic-free Subcultures: 16 µg/mL
[7]; strain 3009 Macrolide-R [23SrRNA mutation], clone selected with CEM-101
  Retest MIC after 10 Antibiotic-free Subcultures: >64 µg/mL
[7]; strain 3009 Macrolide-R [23SrRNA mutation], clone selected with CLR
  Retest MIC after 10 Antibiotic-free Subcultures: 64 µg/mL
[7]; strain 3665 Macrolide-R [mef(A)], clone selected with CEM-101
  Retest MIC after 10 Antibiotic-free Subcultures: 4 µg/mL
[7]; strain 3665 Macrolide-R [mef(A)], clone selected with CLR
  Retest MIC after 10 Antibiotic-free Subcultures: 8 µg/mL
[7]; strain 3665 Macrolide-R [mef(A)], clone selected with TEL
  Retest MIC after 10 Antibiotic-free Subcultures: 2 µg/mL
[7]; strain 7127 Macrolide-S [S20N in L4, A105V in L22], clone selected with AZI
  Retest MIC after 10 Antibiotic-free Subcultures: 0.5 µg/mL
[7]; strain 7127 Macrolide-S [S20N in L4, A105V in L22], clone selected with CEM-101
  Retest MIC after 10 Antibiotic-free Subcultures: 0.125 µg/mL
[7]; strain 7127 Macrolide-S [S20N in L4, A105V in L22], clone selected with CLN
  Retest MIC after 10 Antibiotic-free Subcultures: 0.016 µg/mL
[7]; strain 7127 Macrolide-S [S20N in L4, A105V in L22], clone selected with CLR
  Retest MIC after 10 Antibiotic-free Subcultures: 16 µg/mL
[7]; strain 7127 Macrolide-S [S20N in L4, A105V in L22], clone selected with TEL
  Retest MIC after 10 Antibiotic-free Subcultures: 0.06 µg/mL
[8]; pneumococci, L4 mutations (27)
  MIC50: 16 µg/mL (≈ 21.4 µM)
  MIC90: 32 µg/mL (≈ 42.8 µM)
[8]; read-out: MIC range, pneumococci, L4 mutations (27)
  MIC: 1 to 32 µg/mL (≈ 1.34 to 42.8 µM)
[9]; S. pyogenes (erythromycin R)
  MIC: 1 µg/mL
[9]; S. pyogenes (macrolide susceptible)
  MIC: 0.015 µg/mL
